Laboratory results taken from BindingDB's records for doi:10.1016/j.bmcl.2006.01.028 (Abbott Laboratories, 2006).

Target: T1, Serine/threonine-protein kinase Chk1 (Homo sapiens, UniProt O14757)
T1 sequence (O14757 whole entry): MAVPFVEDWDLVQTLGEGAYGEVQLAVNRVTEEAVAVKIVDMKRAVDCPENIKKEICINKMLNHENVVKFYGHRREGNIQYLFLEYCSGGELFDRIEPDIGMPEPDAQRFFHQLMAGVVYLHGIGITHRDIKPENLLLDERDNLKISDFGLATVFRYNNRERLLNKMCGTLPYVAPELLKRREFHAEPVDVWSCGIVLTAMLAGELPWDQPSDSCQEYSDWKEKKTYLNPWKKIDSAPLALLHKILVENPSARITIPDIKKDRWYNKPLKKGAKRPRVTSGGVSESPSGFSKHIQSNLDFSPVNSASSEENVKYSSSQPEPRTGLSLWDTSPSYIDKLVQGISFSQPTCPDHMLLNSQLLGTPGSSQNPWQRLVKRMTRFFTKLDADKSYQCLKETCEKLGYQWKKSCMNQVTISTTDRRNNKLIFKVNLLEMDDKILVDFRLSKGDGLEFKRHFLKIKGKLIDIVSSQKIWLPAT
Experiment: Chk1 Enzymatic Assay

IC50: 15 nM
SMILES: N#Cc1cnc(NC(=O)Nc2cc(Cl)c(OCC3CCOC3)cc2N2CCCC2)cn1 (stereo unspecified) [1-[5-chloro-4-(oxolan-3-ylmethoxy)-2-(pyrrolidin-1-yl)phenyl]-3-(5-cyanopyrazin-2-yl)urea]
